Assay results published in PubChem BioAssay AID234 (DTP/NCI, 2004).
Where “and” joins values, the source holds several entries; their conditions need not be identical. Equal entries are not always repeated. Records with an inconclusive call do not appear.

System: C3AKF1 mice, hamster liver cystadenocarcinoma s.c., tumor weight T/C
Assay: NCI In Vivo Anticancer Drug Screen. Data for tumor model Cystadenocarcinoma, Liver (No. 1) (Hamster) (subcutaneous) in C3AKF1 (CHKRF1) mice
Conditions: endpoint: mean tumor weight, schedule: Q01DX010 (ip), higher = larger tumour
Method: The antitumor activity of compounds was measured in mice bearing transplantable tumors. Survival or tumor size were measured and the results are expressed as the measurement made in the treated group (T) divided by the measurement made in the vehicle treated control group (C). The tumor model used in this assay is Cystadenocarcinoma, Liver (No. 1) (Hamster) (subcutaneous) in C3AKF1 (CHKRF1) mice

[1] = dose: 3.0 mg/kg/injection, vehicle: carboxymethylcellulose (CMC)
[2] = dose: 7.0 mg/kg/injection, vehicle: carboxymethylcellulose (CMC)
[3] = dose: 15.0 mg/kg/injection, vehicle: carboxymethylcellulose (CMC)
[4] = dose: 22.5 mg/kg/injection, vehicle: carboxymethylcellulose (CMC)
[5] = dose: 45.0 mg/kg/injection, vehicle: carboxymethylcellulose (CMC)
[6] = dose: 0.5 mg/kg/injection, vehicle: carboxymethylcellulose (CMC)
[7] = dose: 1.0 mg/kg/injection, vehicle: carboxymethylcellulose (CMC)
[8] = dose: 2.0 mg/kg/injection, vehicle: carboxymethylcellulose (CMC)
[9] = dose: 125.0 mg/kg/injection, vehicle: carboxymethylcellulose (CMC)
[10] = dose: 250.0 mg/kg/injection, vehicle: carboxymethylcellulose (CMC)
[11] = dose: 10.0 mg/kg/injection, vehicle: carboxymethylcellulose (CMC)
[12] = dose: 20.0 mg/kg/injection, vehicle: carboxymethylcellulose (CMC)
[13] = dose: 40.0 mg/kg/injection, vehicle: carboxymethylcellulose (CMC)
[14] = dose: 30.0 mg/kg/injection, vehicle: carboxymethylcellulose (CMC)
[15] = dose: 50.0 mg/kg/injection, vehicle: saline
[16] = dose: 100.0 mg/kg/injection, vehicle: saline
[17] = dose: 0.75 mg/kg/injection, vehicle: saline
[18] = dose: 12.5 mg/kg/injection, vehicle: carboxymethylcellulose (CMC)
[19] = dose: 25.0 mg/kg/injection, vehicle: carboxymethylcellulose (CMC)
[20] = dose: 50.0 mg/kg/injection, vehicle: carboxymethylcellulose (CMC)
[21] = dose: 100.0 mg/kg/injection, vehicle: carboxymethylcellulose (CMC)
[22] = dose: 400.0 mg/kg/injection, vehicle: carboxymethylcellulose (CMC)
[23] = dose: 2.5 mg/kg/injection, vehicle: carboxymethylcellulose (CMC)
[24] = dose: 5.0 mg/kg/injection, vehicle: carboxymethylcellulose (CMC)

CCn1cnc2c(=S)nc(N)[nH]c21
T/C [1]: 115 % of control
T/C [2]: 107 % of control
T/C [3]: 59 % of control and 70 % of control

O=C(COc1cc(Cl)c(Cl)cc1Cl)OCCOc1cc(Cl)c(Cl)cc1Cl
T/C (dose: 11.25 mg/kg/injection, vehicle: carboxymethylcellulose (CMC)): 88 % of control
T/C [4]: 102 % of control
T/C [5]: 87 % of control

N#C[C@@H]1C2C=CC(CC2)[C@H]1C#N
T/C [6]: 72 % of control
T/C [7]: 68 % of control
T/C [8]: 57 % of control

CCCCSc1nc(N)nc2c1ncn2CC(C)CC (stereo unspecified)
T/C (dose: 62.0 mg/kg/injection, vehicle: carboxymethylcellulose (CMC)): 64 % of control
T/C [9]: 82 % of control
T/C [10]: 86 % of control and 94 % of control
T/C (dose: 750.0 mg/kg/injection, vehicle: carboxymethylcellulose (CMC)): 54 % of control

C1CC[N-]CC1.C1CC[N-]CC1.C1CC[N-]CC1.C1CC[N-]CC1.[Cl][Co][Cl]
T/C (dose: 35.0 mg/kg/injection, vehicle: saline): 84 % of control
T/C (dose: 55.0 mg/kg/injection, vehicle: saline): 82 % of control
T/C (dose: 80.0 mg/kg/injection, vehicle: saline): 71 % of control

CCOC(=O)NC
T/C (dose: 75.0 mg/kg/injection, vehicle: saline): 64 % of control
T/C (dose: 150.0 mg/kg/injection, vehicle: saline): 83 % of control
T/C (dose: 300.0 mg/kg/injection, vehicle: saline): 93 % of control
T/C (dose: 600.0 mg/kg/injection, vehicle: saline): 83 % of control

Cn1cnc([N+](=O)[O-])c1Sc1nc(N)nc2c1ncn2C1OC(CO)C(O)C1O (stereo unspecified)
T/C [7]: 124 % of control
T/C [1]: 69 % of control
T/C [3]: 88 % of control

[I][Hg][CH2]C1COCC([CH2][Hg][I])O1.[I][Hg][CH2]C1COCC([CH2][Hg][I])O1 (stereo unspecified)
T/C [11]: 83 % of control
T/C [12]: 109 % of control
T/C [13]: 91 % of control

CC(=O)Nc1ccc(NC(=O)c2ccc([As](O)O)cc2)cc1
T/C [3]: 60 % of control
T/C [14]: 77 % of control
T/C (dose: 60.0 mg/kg/injection, vehicle: carboxymethylcellulose (CMC)): 92 % of control
T/C (dose: 120.0 mg/kg/injection, vehicle: carboxymethylcellulose (CMC)): 91 % of control

CSc1ncc(Br)c(Sc2nc(N)nc3nc[nH]c23)n1
T/C (dose: 1.5 mg/kg/injection, vehicle: carboxymethylcellulose (CMC)): 106 % of control
T/C [1]: 117 % of control
T/C (dose: 6.0 mg/kg/injection, vehicle: carboxymethylcellulose (CMC)): 92 % of control
T/C (dose: 12.0 mg/kg/injection, vehicle: carboxymethylcellulose (CMC)): 74 % of control and 85 % of control and 92 % of control
T/C (dose: 18.0 mg/kg/injection, vehicle: carboxymethylcellulose (CMC)): 103 % of control
T/C (dose: 27.0 mg/kg/injection, vehicle: carboxymethylcellulose (CMC)): 77 % of control and 81 % of control
T/C [13]: 65 % of control

CC1CC(C)OS(=O)O1 (stereo unspecified)
T/C (dose: 44.0 mg/kg/injection, vehicle: saline): 65 % of control
T/C (dose: 66.0 mg/kg/injection, vehicle: saline): 81 % of control

CCCCn1cnc2c(=S)nc(N)[nH]c21
T/C [7]: 82 % of control
T/C [2]: 60 % of control and 77 % of control
T/C [3]: 50 % of control
T/C [14]: 49 % of control

O=P(N1CC1)(N1CC1)N1CC1
T/C [6]: 93 % of control
T/C [7]: 65 % of control
T/C [8]: 71 % of control
T/C (dose: 4.0 mg/kg/injection, vehicle: carboxymethylcellulose (CMC)): 48 % of control

CNC=O
T/C [15]: 39 % of control
T/C [16]: 34 % of control
T/C (dose: 200.0 mg/kg/injection, vehicle: saline): 20 % of control

O=c1c[n+](-c2ccccc2)[nH]o1
T/C [4]: 66 % of control
T/C [5]: 41 % of control

CCCC(=O)NC1=C(N2CC2)C(=O)C(NC(=O)CCC)=C(N2CC2)C1=O
T/C (dose: 0.5 mg/kg/injection, vehicle: saline): 69 % of control and 86 % of control
T/C [17]: 47 % of control and 49 % of control
T/C (dose: 1.7 mg/kg/injection, vehicle: saline): 32 % of control and 48 % of control
T/C (dose: 2.6 mg/kg/injection, vehicle: saline): 14 % of control

CCCCCCCCCCCCn1c(C)nc2ccccc21
T/C [8]: 79 % of control
T/C (dose: 8.0 mg/kg/injection, vehicle: carboxymethylcellulose (CMC)): 62 % of control

CCN(CC)Cc1cc(Nc2c3ccccc3nc3cc(Cl)ccc23)ccc1O
T/C (dose: 6.25 mg/kg/injection, vehicle: carboxymethylcellulose (CMC)): 84 % of control
T/C [18]: 106 % of control
T/C [19]: 87 % of control
T/C [20]: 88 % of control

CCN(CC)CCN1C(=O)c2cccc3cccc(c23)C1=O
T/C (dose: 25.0 mg/kg/injection, vehicle: saline): 90 % of control
T/C [15]: 163 % of control
T/C [16]: 109 % of control

ClCCn1cnc2c(SCc3ccccc3Cl)ncnc21
T/C [20]: 96 % of control
T/C [21]: 64 % of control
T/C [22]: 49 % of control

O=C(O)CCc1c[nH]c2ccc(N(CCCl)CCCl)cc12
T/C (dose: 1.2 mg/kg/injection, vehicle: carboxymethylcellulose (CMC)): 109 % of control
T/C [23]: 97 % of control
T/C [24]: 77 % of control
T/C [11]: 69 % of control

O=C(O)CC(O)(CC(=O)O)C(=O)O.[Ga]
T/C [18]: 123 % of control
T/C [19]: 96 % of control
T/C [20]: 79 % of control

O=C1C=Cc2ccc(O)cc2C1=O
T/C (dose: 1.25 mg/kg/injection, vehicle: carboxymethylcellulose (CMC)): 71 % of control
T/C [23]: 72 % of control
T/C [24]: 74 % of control
T/C [11]: 88 % of control and 89 % of control
T/C [12]: 74 % of control

CC(C)=CC1C(C(=O)OCc2ccc(C)cc2C)C1(C)C (stereo unspecified)
T/C (dose: 87.5 mg/kg/injection, vehicle: carboxymethylcellulose (CMC)): 90 % of control
T/C (dose: 175.0 mg/kg/injection, vehicle: carboxymethylcellulose (CMC)): 72 % of control
T/C (dose: 350.0 mg/kg/injection, vehicle: carboxymethylcellulose (CMC)): 63 % of control

COc1cc(OC)c(OC)cc1/C=C\c1ccnc2ccccc12
T/C (dose: 63.0 mg/kg/injection, vehicle: carboxymethylcellulose (CMC)): 104 % of control
T/C [9]: 97 % of control
T/C [10]: 95 % of control

CCC[CH2][Sn]([CH2]CCC)([CH2]CCC)[O]C(=O)CC[S][Sn]([CH2]CCC)([CH2]CCC)[CH2]CCC
T/C [17]: 111 % of control
T/C (dose: 1.5 mg/kg/injection, vehicle: saline): 77 % of control
T/C (dose: 3.0 mg/kg/injection, vehicle: saline): 100 % of control
T/C (dose: 6.0 mg/kg/injection, vehicle: saline): 83 % of control and 84 % of control
T/C (dose: 12.0 mg/kg/injection, vehicle: saline): 92 % of control
T/C (dose: 24.0 mg/kg/injection, vehicle: saline): 93 % of control

COc1ccccc1NC(=O)CSC(N)=O
T/C [20]: 92 % of control
T/C [21]: 86 % of control
T/C (dose: 200.0 mg/kg/injection, vehicle: carboxymethylcellulose (CMC)): 95 % of control
T/C [22]: 38 % of control
